Measured values from patent publication US20100137313A1 (ASTRAZENECA AB, priority 2008, published 2010).

The molecules below were run against S. pneumoniae Topoisomerase IV ATPase (ParE) (Streptococcus pneumoniae serotype 4, UniProt Q59961) (assay: S. pneumoniae Topoisomerase IV ATPase inhibition). Conditions: values marked * are an average of two or more data points, read-out: % Inh (13 μM) of S. pneumoniae Topoisomerase IV ATPase.
S. pneumoniae Topoisomerase IV ATPase (ParE), sequence (Q59961 whole entry): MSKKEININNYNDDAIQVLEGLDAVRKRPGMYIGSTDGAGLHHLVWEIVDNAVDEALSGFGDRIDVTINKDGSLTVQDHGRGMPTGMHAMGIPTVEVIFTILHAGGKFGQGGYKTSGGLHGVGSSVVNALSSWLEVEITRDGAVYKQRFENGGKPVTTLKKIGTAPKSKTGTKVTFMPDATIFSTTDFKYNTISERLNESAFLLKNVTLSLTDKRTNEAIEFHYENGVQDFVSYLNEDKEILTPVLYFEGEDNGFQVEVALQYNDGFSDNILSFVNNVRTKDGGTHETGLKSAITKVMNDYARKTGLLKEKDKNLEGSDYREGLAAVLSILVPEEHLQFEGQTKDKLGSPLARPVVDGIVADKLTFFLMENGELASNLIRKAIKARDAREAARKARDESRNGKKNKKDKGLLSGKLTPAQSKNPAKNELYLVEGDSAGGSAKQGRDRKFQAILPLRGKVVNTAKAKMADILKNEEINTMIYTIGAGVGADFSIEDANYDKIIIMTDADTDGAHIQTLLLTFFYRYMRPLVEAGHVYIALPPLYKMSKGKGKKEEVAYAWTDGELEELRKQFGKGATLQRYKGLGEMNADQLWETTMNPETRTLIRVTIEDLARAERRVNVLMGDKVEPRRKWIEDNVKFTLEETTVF
Type: biochemical
In short: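 ParE ATPase (1.25 nM) run with 160 μM ATP and 5 μg/ml sheared salmon sperm DNA in Tris pH 8.0, Mg2+, glycerol, DTT, Brij-35. Phosphate released read by malachite green/molybdate absorbance at 650 nm. IC50 from 10 compound concentrations; DMSO (2%) as 0% and EDTA (20 μM) as 100% inhibition.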
For `CONC(=O)c1cncc(-c2cnc(Nc3ccc(F)c(Cl)c3)nc2NCCc2c[nH]cn2)c1` [Example 475, 5-(2-[(3-chloro-4-fluorophenyl)amino]-4-{[2-(1H-imidazol-4-yl)ethyl]amino}pyrimidin-5-yl)-N-methoxypyridine-3-carboxamide], the inhibition at 13 µM was 93%.
With `CONC(=O)c1cncc(-c2cnc(Nc3ccc(F)c(Cl)c3)nc2NCCc2cccnc2)c1` [Example 476, 5-(2-[(3-chloro-4-fluorophenyl)amino]-4-{[2-(pyridin-3-yl)ethyl]amino}pyrimidin-5-yl)-N-methoxypyridine-3-carboxamide] the inhibition at 13 µM was 100%.
For `CONC(=O)c1cncc(-c2cnc(Nc3ccc(F)c(Cl)c3)nc2NCCc2ccncc2)c1` [Example 477, 5-(2-[(3-chloro-4-fluorophenyl)amino]-4-{[2-(pyridin-4-yl)ethyl]amino}pyrimidin-5-yl)-N-methoxypyridine-3-carboxamide], the inhibition at 13 µM was 100%.
For `O=C(O)CCC(=O)Nc1ccc(-c2cnc(Nc3ccc(F)c(Cl)c3)nc2N2CCOCC2)cc1` [Example 478, 4-[(4-{2-[(3-chloro-4-fluorophenyl)amino]-4-(morpholin-4-yl)pyrimidin-5-yl}phenyl)amino]-4-oxobutanoic acid], the inhibition at 13 µM was 100%.
With `O=C(O)CCC(=O)Nc1cccc(-c2cnc(Nc3ccc(F)c(Cl)c3)nc2N2CCOCC2)c1` [Example 482, 4-[(3-{2-[(3-chloro-4-fluorophenyl)amino]-4-(morpholin-4-yl)pyrimidin-5-yl}phenyl)amino]-4-oxobutanoic acid] the inhibition at 13 µM was 99%.
`O=C(O)c1cc(-c2cnc(Nc3ccc(F)c(Cl)c3)nc2N2CCOCC2)cs1` [Example 483, 4-{2-[(3-chloro-4-fluorophenyl)amino]-4-(morpholin-4-yl)pyrimidin-5-yl}thiophene-2-carboxylic acid] was tested, and the inhibition at 13 µM was 66%.
`O=C(O)Cn1cc(-c2cnc(Nc3ccc(F)c(Cl)c3)nc2N2CCOCC2)cn1` [Example 485, (4-{2-[(3-chloro-4-fluorophenyl)amino]-4-(morpholin-4-yl)pyrimidin-5-yl}-1H-pyrazol-1-yl)acetic acid] was tested, and the inhibition at 13 µM was 85%.
`O=C(O)c1cccc(-c2cnc(Nc3ccc(F)c(Cl)c3)nc2N2CCOCC2)c1` [Example 487, 3-{2-[(3-chloro-4-fluorophenyl)amino]-4-(morpholin-4-yl)pyrimidin-5-yl}benzoic acid] showed an inhibition at 13 µM of 84%.
For `O=C(O)COc1cccc(-c2cnc(Nc3ccc(F)c(Cl)c3)nc2N2CCOCC2)c1` [Example 488, (3-{2-[(3-chloro-4-fluorophenyl)amino]-4-(morpholin-4-yl)pyrimidin-5-yl}phenoxy)acetic acid], the inhibition at 13 µM was 92%.
`O=C(O)COc1ccc(-c2cnc(Nc3ccc(F)c(Cl)c3)nc2N2CCOCC2)cc1` [Example 489, (4-{2-[(3-chloro-4-fluorophenyl)amino]-4-(morpholin-4-yl)pyrimidin-5-yl}phenoxy)acetic acid] gave an inhibition at 13 µM of 97%.
`O=C(O)c1cc(-c2cnc(Nc3ccc(F)c(Cl)c3)nc2N2CCOCC2)cc([N+](=O)[O-])c1` [Example 490, 3-{2-[(3-chloro-4-fluorophenyl)amino]-4-(morpholin-4-yl)pyrimidin-5-yl}-5-nitrobenzoic acid] showed an inhibition at 13 µM of 100%.
For `Nc1cc(C(=O)O)cc(-c2cnc(Nc3ccc(F)c(Cl)c3)nc2N2CCOCC2)c1` [Example 491, 3-amino-5-{2-[(3-chloro-4-fluorophenyl)amino]-4-(morpholin-4-yl)pyrimidin-5-yl}benzoic acid], the inhibition at 13 µM was 87%.
With `O=C(O)c1cc(-c2cnc(Nc3ccc(F)c(Cl)c3)nc2N2CCOCC2)ccn1` [Example 493, 4-{2-[(3-chloro-4-fluorophenyl)amino]-4-(morpholin-4-yl)pyrimidin-5-yl}pyridine-2-carboxylic acid] the inhibition at 13 µM was 9%.
With `NC(=O)c1cc(-c2cnc(Nc3ccc(F)c(Cl)c3)nc2-n2ccc(C(F)(F)F)n2)ccn1` [Example 496, 4-{2-[(3-chloro-4-fluorophenyl)amino]-4-[3-(trifluoromethyl)-1H-pyrazol-1-yl]pyrimidin-5-yl}pyridine-2-carboxamide] the inhibition at 13 µM was 100%.
`Fc1ccc(Nc2ncc(-c3nc4ccccc4[nH]3)c(N3CCOCC3)n2)cc1Cl` [Example 497, 5-(1H-benzimidazol-2-yl)-N-(3-chloro-4-fluorophenyl)-4-(morpholin-4-yl)pyrimidin-2-amine] gave an inhibition at 13 µM of 61%.
For `COCCCNc1nc(Nc2ccc(F)c(Cl)c2)ncc1-c1nc(-c2ccc(C#N)cc2)cs1` [Example 498, 4-(2-{2-[(3-chloro-4-fluorophenyl)amino]-4-[(3-methoxypropyl)amino]pyrimidin-5-yl}-1,3-thiazol-4-yl)benzonitrile], the inhibition at 13 µM was 41%.
Work on `COCCCNc1nc(Nc2ccc(F)c(Cl)c2)ncc1-c1nc(-c2cccnc2)cs1` [Example 499, N^2-(3-chloro-4-fluorophenyl)-N^4-(3-methoxypropyl)-5-[4-(pyridin-3-yl)-1,3-thiazol-2-yl]pyrimidine-2,4-diamine] yielded an inhibition at 13 µM of 34%.
Molecule `COCCCNc1nc(Nc2ccc(F)c(Cl)c2)ncc1-c1nc(-c2ccncc2)cs1` [Example 500, N^2-(3-chloro-4-fluorophenyl)-N^4-(3-methoxypropyl)-5-[4-(pyridin-4-yl)-1,3-thiazol-2-yl]pyrimidine-2,4-diamine] has an inhibition at 13 µM of 83%.
`COCCCNc1nc(Nc2ccc(F)c(Cl)c2)ncc1-c1nc(-c2nccs2)cs1` [Example 502, 5-(2,4′-bi-1,3-thiazol-2′-yl)-N^2-(3-chloro-4-fluorophenyl)-N^4-(3-methoxypropyl)pyrimidine-2,4-diamine] showed an inhibition at 13 µM of 10%.
In the case of `COCCCNc1nc(Nc2ccc(F)c(Cl)c2)ncc1-c1nc(-c2cnoc2C)cs1` [Example 503, N^2-(3-chloro-4-fluorophenyl)-N^4-(3-methoxypropyl)-5-[4-(5-methylisoxazol-4-yl)-1,3-thiazol-2-yl]pyrimidine-2,4-diamine], the inhibition at 13 µM is reported as 147%.
`COCCCNc1nc(Nc2ccc(F)c(Cl)c2)ncc1-c1nc(-c2cncn2C)cs1` [Example 504, N^2-(3-chloro-4-fluorophenyl)-N^4-(3-methoxypropyl)-5-[4-(1-methyl-1H-imidazol-5-yl)-1,3-thiazol-2-yl]pyrimidine-2,4-diamine] gave an inhibition at 13 µM of 83%.
Work on `COCCCNc1nc(Nc2ccc(F)c(Cl)c2)ncc1-c1nc(C)c(C(=O)OC)s1` [Example 505, methyl 2-{2-[(3-chloro-4-fluorophenyl)amino]-4-[(3-methoxypropyl)amino]pyrimidin-5-yl}-4-methyl-1,3-thiazole-5-carboxylate] yielded an inhibition at 13 µM of 19%.
For `CCOC(=O)c1sc(-c2cnc(Nc3ccc(F)c(Cl)c3)nc2NCCCOC)nc1-c1ccccc1` [Example 506, ethyl 2-{2-[(3-chloro-4-fluorophenyl)amino]-4-[(3-methoxypropyl)amino]pyrimidin-5-yl}-4-phenyl-1,3-thiazole-5-carboxylate], the inhibition at 13 µM was 33%.
`CCOC(=O)c1sc(-c2cnc(Nc3ccc(F)c(Cl)c3)nc2NCCCOC)nc1-c1ccccn1` [Example 507, ethyl 2-{2-[(3-chloro-4-fluorophenyl)amino]-4-[(3-methoxypropyl)amino]pyrimidin-5-yl}-4-(pyridin-2-yl)-1,3-thiazole-5-carboxylate] gave an inhibition at 13 µM of 74%.
With `CCOC(=O)c1sc(-c2cnc(Nc3ccc(F)c(Cl)c3)nc2NCCCOC)nc1-c1ccn(C)n1` [Example 508, ethyl 2-{2-[(3-chloro-4-fluorophenyl)amino]-4-[(3-methoxypropyl)amino]pyrimidin-5-yl}-4-(1-methyl-1H-pyrazol-3-yl)-1,3-thiazole-5-carboxylate] the inhibition at 13 µM was 0%.
In the case of `COCCCNc1nc(Nc2ccc(F)c(Cl)c2)ncc1-c1nc(C)c(C(=O)O)s1` [Example 509, 2-{2-[(3-chloro-4-fluorophenyl)amino]-4-[(3-methoxypropyl)amino]pyrimidin-5-yl}-4-methyl-1,3-thiazole-5-carboxylic acid], the inhibition at 13 µM is reported as 100%.
In the case of `COCCCNc1nc(Nc2ccc(F)c(Cl)c2)ncc1-c1nc(-c2ccccc2)c(C(=O)O)s1` [Example 510, 2-{2-[(3-chloro-4-fluorophenyl)amino]-4-[(3-methoxypropyl)amino]pyrimidin-5-yl}-4-phenyl-1,3-thiazole-5-carboxylic acid], the inhibition at 13 µM is reported as 97%.
With `COCCCNc1nc(Nc2ccc(F)c(Cl)c2)ncc1-c1nc(-c2ccccn2)c(C(=O)O)s1` [Example 511, 2-{2-[(3-chloro-4-fluorophenyl)amino]-4-[(3-methoxypropyl)amino]pyrimidin-5-yl}-4-(pyridin-2-yl)-1,3-thiazole-5-carboxylic acid] the inhibition at 13 µM was 100%.
Work on `COCCCNc1nc(Nc2ccc(F)c(Cl)c2)ncc1-c1nc(-c2ccn(C)n2)c(C(=O)O)s1` [Example 512, 2-{2-[(3-chloro-4-fluorophenyl)amino]-4-[(3-methoxypropyl)amino]pyrimidin-5-yl}-4-(1-methyl-1H-pyrazol-3-yl)-1,3-thiazole-5-carboxylic acid] yielded an inhibition at 13 µM of 100%.
Work on `O=C(O)/C=C/c1cccc(-c2cnc(Nc3ccc(F)c(CO)c3)nc2N2CCOCC2)c1` [Example 516, (2E)-3-{3-[2-{[4-fluoro-3-(hydroxymethyl)phenyl]amino}-4-(morpholin-4-yl)pyrimidin-5-yl]phenyl}prop-2-enoic acid] yielded an inhibition at 13 µM of 98%.
`O=C(O)/C=C/c1cccc(-c2cnc(Nc3cccc4cc[nH]c34)nc2N2CCOCC2)c1` [Example 517, (2E)-3-{3-[2-(1H-indol-7-ylamino)-4-(morpholin-4-yl)pyrimidin-5-yl]phenyl}prop-2-enoic acid] showed an inhibition at 13 µM of 100%.
With `Cc1cc(-c2nccs2)nn1-c1nc(Nc2ccc(F)c(Cl)c2)ncc1-c1cncc(C(=O)O)c1` [Example 529, 5-{2-[(3-chloro-4-fluorophenyl)amino]-4-[5-methyl-3-(1,3-thiazol-2-yl)-1H-pyrazol-1-yl]pyrimidin-5-yl}pyridine-3-carboxylic acid] the inhibition at 13 µM was 100%.
